Assay results as given in PubChem BioAssay (NCI).
“And” between values parts separate entries of the source, which are not always exact repeats. Equal entries are not always repeated.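 A five-concentration, 48-hour dose response in 96-well plates underlies each endpoint, interpolated linearly between surrounding concentrations. Here, GI50 denotes the concentration required for 50% inhibition of growth. At the TGI there is no net growth.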 Where a SMILES comes first, the peptide text is derived from it. The star is where a group is joined. Boc = CC(C)(C)OC(=O)*

Columns and labels:
Assay in all cases: DTP human tumour cell line panel, 48 h
SK-OV-3 ovarian = system: SK-OV-3 ovarian
MALME-3M melanoma = system: MALME-3M melanoma
TK-10 renal = system: TK-10 renal
ACHN renal = system: ACHN renal
786-0 renal = system: 786-0 renal
M14 melanoma = system: M14 melanoma
U251 CNS = system: U251 CNS
OVCAR-8 ovarian = system: OVCAR-8 ovarian
RXF 393 renal = system: RXF 393 renal
HCT-116 colon = system: HCT-116 colon

Row | Compound | TGI (SK-OV-3 ovarian) | TGI (MALME-3M melanoma) | TGI (TK-10 renal) | TGI (ACHN renal) [µM] | TGI (786-0 renal) | TGI (M14 melanoma) [µM] | TGI (U251 CNS) [µM] | TGI (OVCAR-8 ovarian) [µM] | TGI (RXF 393 renal) [µM] | TGI (HCT-116 colon) | GI50 (SK-OV-3 ovarian) [µM] | GI50 (TK-10 renal) [µM] | GI50 (OVCAR-8 ovarian) [µM]
1 | NS(=O)(=O)c1ccc(Nc2c3ccccc3nc3c(C(=O)NCCCN(CCO)CCO)cccc23)cc1 | > 100 µM | 42 µM | > 100 µM | > 100 | 45.2 µM | 45.1 | 31.7 | > 100 | – | – | – | – | –
2 | Oc1ccc2c(c1)CC[N+]1=C2CCC2CCCC21 (stereo unspecified) | > 100 µM | – | > 100 µM | > 100 | > 100 µM | > 100 | – | > 100 | > 100 | > 100 µM | – | – | –
3 | CCN(CC)C(=S)N/N=C/c1ccccn1 | – | > 100 µM | – | 10.1 | 19 µM | 0.349 | > 100 | – | – | – | – | – | –
4 | CCc1nn(S(=O)(=O)c2ccc(C)cc2)c2c1CS(=O)(=O)CC2 | > 100 µM | – | > 100 µM | > 100 | > 100 µM | > 100 | > 100 | > 100 | > 100 | > 100 µM | – | – | –
5 | Cc1cc(N=Cc2c(CO)cnc(C)c2O)c(N=Cc2c(CO)cnc(C)c2O)cc1C.[Zn] | > 100 µM | – | > 100 µM | > 100 | > 100 µM | > 100 | > 100 | > 100 | > 100 | > 100 µM | – | – | –
6 | CC1(C)[C@@H](Cn2cnc3c(=O)[nH]c(N)nc32)CC[C@@]1(C)CO | > 100 µM | – | > 100 µM | > 100 | > 100 µM | > 100 | > 100 | – | > 100 | > 100 µM | – | – | –
7 | O=C(NNc1cn[nH]c(=O)c1Cl)/C(=C/c1ccc2c(c1)OCO2)NC(=O)c1ccccc1 | > 100 µM | – | > 100 µM | > 100 | > 100 µM | > 100 | > 100 | > 100 | – | > 100 µM | – | – | –
8 | COC(=O)C(Cc1c[nH]c2ccccc12)NC(=O)C(Cc1c[nH]c2ccccc12)NC(=O)C(Cc1c[nH]c2ccccc12)NC(=O)C(Cc1c[nH]c2ccccc12)NC(=O)OC(C)(C)C (stereo unspecified) (Boc-WWWW-OMe; configuration not given here) | – | > 100 µM | > 100 µM | > 100 | > 100 µM | > 100 | 34.6 | > 100 | – | 44.2 µM | – | – | –
9 | CCCn1c(=O)c2ccccc2[n+]2c(-c3ccc([N+](=O)[O-])cc3)csc12 | > 100 µM | – | – | > 100 | 76.3 µM | > 100 | > 100 | 83.4 | 55.3 | > 100 µM | – | – | –
10 | NC(c1ccccc1)(C(F)(F)F)P1(=O)OC(=O)c2ccccc2O1 (stereo unspecified) | 74.4 µM | – | > 100 µM | > 100 | > 100 µM | > 100 | > 100 | > 100 | > 100 | > 100 µM | – | – | –
11 | OCC(O)C1OC2CC1Nc1ccccc1N2 (stereo unspecified) | > 100 µM | > 100 µM | > 100 µM | > 100 | > 100 µM | – | > 100 | > 100 | – | > 100 µM | – | – | –
12 | O=c1[nH]c(=O)n(COCc2ccccc2)c2ccc([N+](=O)[O-])cc12 | > 100 µM | – | > 100 µM | > 100 | > 100 µM | > 100 | > 100 | > 100 | > 100 | > 100 µM | – | – | –
13 | CN(C)CCCNc1c2ccccc2nc2cccc([N+](=O)[O-])c12 | 0.0921 µM and 0.0723 µM | 0.00221 µM and 0.0136 µM | 0.00909 µM and 0.0869 µM | – | 0.0058 µM and 0.0531 µM | 0.00165 | 0.0143 | – | – | 0.0132 µM and 0.0316 µM | 0.0204 | 0.0203 | < 0.001
14 | CC(=NCCN(CCN=C(C)c1c(O)cc(C)oc1=O)CCN=C(C)c1c(O)cc(C)oc1=O)c1c(O)cc(C)oc1=O | > 100 µM | – | > 100 µM | > 100 | > 100 µM | > 100 | > 100 | > 100 | – | > 100 µM | – | – | –
15 | C[C@H](CC[C@@H](O)C(C)(C)O)[C@H]1CC[C@@]2(C)[C@@H]3CC=C4[C@@H](CC[C@H](O)C4(C)C)[C@]3(C)C(=O)C[C@]12C | > 50 µM | > 50 µM | > 50 µM | > 50 | > 50 µM | > 50 | > 50 | > 50 | – | > 50 µM | – | – | –
16 | O=c1[nH]c(=O)n(COCc2ccccc2)c2ccc(Br)cc12 | > 100 µM | – | > 100 µM | > 100 | > 100 µM | > 100 | > 100 | > 100 | > 100 | > 100 µM | – | – | –
17 | CCOP(=O)(OCC)/C(=C\N1C(=O)CC(=O)NC1=S)C(=O)OC | > 100 µM | – | > 100 µM | > 100 | > 100 µM | > 100 | > 100 | > 100 | > 100 | > 100 µM | – | – | –
18 | O=C(NCCCCNCCCNC(=O)c1ccccc1)c1ccccc1 | > 100 µM | – | > 100 µM | > 100 | > 100 µM | > 100 | > 100 | > 100 | > 100 | > 100 µM | – | – | –
